Measurements taken from ChEMBL document CHEMBL4417631, “Oral peptide inhibitors of interleukin-23 receptor and their use to treat inflammatory bowel diseases” (2017).
pIC50: −log10 of the molar value. Where a SMILES comes first, the peptide text is derived from it.

Target: T1, Interleukin-23 receptor (Homo sapiens, UniProt Q5VWK5)
T1 sequence (Q5VWK5 whole entry): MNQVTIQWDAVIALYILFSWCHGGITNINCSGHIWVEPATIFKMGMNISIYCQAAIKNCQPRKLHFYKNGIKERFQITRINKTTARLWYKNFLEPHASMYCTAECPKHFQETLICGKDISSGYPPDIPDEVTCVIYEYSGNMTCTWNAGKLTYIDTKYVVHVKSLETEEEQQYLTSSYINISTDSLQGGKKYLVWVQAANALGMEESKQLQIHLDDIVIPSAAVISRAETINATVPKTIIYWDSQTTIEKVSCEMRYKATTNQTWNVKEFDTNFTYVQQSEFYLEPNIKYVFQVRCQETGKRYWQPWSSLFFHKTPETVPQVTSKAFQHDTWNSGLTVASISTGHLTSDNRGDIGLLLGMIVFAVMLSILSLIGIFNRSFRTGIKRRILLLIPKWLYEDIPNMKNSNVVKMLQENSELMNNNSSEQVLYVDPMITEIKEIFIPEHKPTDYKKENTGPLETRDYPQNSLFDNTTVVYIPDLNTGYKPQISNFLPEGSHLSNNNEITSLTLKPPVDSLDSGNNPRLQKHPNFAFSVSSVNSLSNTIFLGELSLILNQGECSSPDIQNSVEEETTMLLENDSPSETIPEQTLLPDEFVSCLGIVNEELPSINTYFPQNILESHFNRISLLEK
Assay: Inhibition of interleukin-23 binding to human interleukin-23 receptor incubated for 2 hrs by competitive binding ELISA

Row | pIC50 | SMILES
1 | < 6.00 | CC(=O)N[C@@H](CS)C(=O)N[C@@H](C)C(=O)N[C@@H](CC(=O)O)C(=O)N[C@@H](Cc1c[nH]c2ccccc12)C(=O)N[C@H](C(=O)N[C@@H](CS)C(=O)N[C@@H](Cc1ccc(O)cc1)C(=O)N[C@@H](Cc1cccc2ccccc12)C(=O)N[C@@H](Cc1cnc[nH]1)C(=O)NCCC(=O)N[C@@H](Cc1ccccc1)C(=O)NCC(N)=O)C(C)C
2 | < 5.22 | CCCCCCCCCCCCCCCC(=O)NCCCC[C@H](NC(=O)[C@H](CCCN)NC(=O)[C@H](Cc1c[nH]c2ccccc12)NC(=O)[C@H](Cc1ccc(O)cc1)NC(=O)[C@H](CS)NC(=O)[C@H](CCC(N)=O)NC(=O)[C@H](Cc1c[nH]c2ccccc12)NC(=O)[C@@H](NC(=O)[C@H](CCC(N)=O)NC(=O)[C@H](CS)NC(C)=O)[C@@H](C)O)C(=O)N[C@@H](CC(N)=O)C(=O)NCC(N)=O
3 | 6.00 to 6.30 | CC(=O)N[C@@H](CS)C(=O)N[C@@H](C)C(=O)N[C@@H](CC(=O)O)C(=O)N[C@@H](Cc1c[nH]c2ccccc12)C(=O)N[C@H](C(=O)N[C@@H](CS)C(=O)N[C@@H](Cc1ccc(O)cc1)C(=O)N[C@@H](Cc1c[nH]c2ccccc12)C(=O)N[C@@H](Cc1cnc[nH]1)C(=O)N[C@@H](CC(N)=O)C(=O)N[C@@H](Cc1cnc[nH]1)C(=O)N[C@@H](CO)C(=O)N[C@@H](CCC(=O)O)C(=O)NCC(=O)N[C@@H](CO)C(=O)NCC(N)=O)C(C)C (Ac-CADWVCYWHNHSEGSG-NH2)
4 | < 6.00 | CC(C)[C@H](NC(=O)[C@H](Cc1cccc2ccccc12)NC(=O)[C@H](CC(=O)O)NC(=O)[C@H](C)NC(=O)[C@@H](N)CS)C(=O)N[C@@H](CS)C(=O)N[C@@H](Cc1ccc(O)cc1)C(=O)N[C@@H](Cc1c[nH]c2ccccc12)C(=O)N[C@@H](Cc1cnc[nH]1)C(=O)N[C@H](C(=O)N[C@@H](Cc1ccccc1)C(=O)NCC(N)=O)[C@@H](C)O
5 | < 5.00 | CC(=O)NC(=O)[C@@H](CCCCNC(=O)COCC(=O)NCCCC[C@@H](NCCC(=O)N[C@@H](CS)C(=O)N[C@@H](C)C(=O)N[C@@H](CC(=O)O)C(=O)N[C@@H](Cc1c[nH]c2ccccc12)C(=O)N[C@H](C(=O)N[C@@H](CS)C(=O)N[C@@H](Cc1ccc(O)cc1)C(=O)N[C@@H](Cc1c[nH]c2ccccc12)C(=O)N[C@@H](Cc1cnc[nH]1)C(=O)N[C@H](C(=O)N[C@@H](Cc1ccccc1)C(=O)NCC(=O)O)[C@@H](C)O)C(C)C)C(=O)NC(C)=O)NCCC(=O)N[C@@H](CS)C(=O)N[C@@H](C)C(=O)N[C@@H](CC(=O)O)C(=O)N[C@@H](Cc1c[nH]c2ccccc12)C(=O)N[C@H](C(=O)N[C@@H](CS)C(=O)N[C@@H](Cc1ccc(O)cc1)C(=O)N[C@@H](Cc1c[nH]c2ccccc12)C(=O)N[C@@H](Cc1cnc[nH]1)C(=O)N[C@H](C(=O)N[C@@H](Cc1ccccc1)C(=O)NCC(=O)O)[C@@H](C)O)C(C)C
6 | < 6.00 | CC(=O)NCCCC[C@H](NC(=O)[C@](C)(CCCCN)NC(=O)[C@H](Cc1ccc2ccccc2c1)NC(=O)[C@H](CCc1ccc(O)cc1)NC(=O)[C@@H]1CSCC[C@H](NC(C)=O)C(=O)N[C@@H](CCC(N)=O)C(=O)N[C@@H]([C@@H](C)O)C(=O)N[C@@H](Cc2c[nH]c3ccccc23)C(=O)N[C@@H](CCC(N)=O)C(=O)N1)C(=O)N[C@@H](CC(N)=O)C(=O)NCC(N)=O
7 | < 6.00 | CC(C)[C@H](NC(=O)[C@H](Cc1c[nH]c2ccccc12)NC(=O)[C@H](CC(=O)O)NC(=O)[C@H](C)NC(=O)[C@@H](N)CS)C(=O)N[C@@H](CS)C(=O)N[C@@H](Cc1ccc(O)cc1)C(=O)N[C@@H](Cc1cccc2ccccc12)C(=O)N[C@@H](Cc1cnc[nH]1)C(=O)N[C@H](C(=O)N[C@@H](Cc1ccccc1)C(=O)O)[C@@H](C)O
8 | 6.00 to 7.00 | COc1ccc(C[C@H](NC(=O)[C@@H](NC(=O)[C@H](CCC(N)=O)NC(=O)[C@H](Cc2c[nH]c3ccccc23)NC(=O)[C@@H](NC(=O)[C@H](CCC(N)=O)NC(=O)[C@@H](NC(=O)Cc2ccc(-c3ccccc3)cc2)C(C)(C)S)[C@@H](C)O)C(C)(C)S)C(=O)N[C@@H](Cc2ccc3ccccc3c2)C(=O)N[C@@](C)(CCCCN)C(=O)N[C@@H](CCCCNC(C)=O)C(=O)N[C@@H](CC(N)=O)C(=O)NCC(N)=O)cc1
9 | 6.00 to 6.30 | CC(=O)N[C@H](C(=O)N[C@@H](CCC(N)=O)C(=O)N[C@@H](Cc1ccccc1)C(=O)N[C@@H](CC(=O)O)C(=O)N[C@@H](CS)C(=O)N[C@@H](CCCNC(=N)N)C(=O)N[C@H](C(=O)N[C@@H](Cc1c[nH]c2ccccc12)C(=O)N[C@@H](CCC(=O)O)C(=O)N[C@@H](CS)C(=O)N[C@@H](Cc1ccc(O)cc1)C(=O)N[C@@H](Cc1c[nH]c2ccccc12)C(=O)N[C@@H](Cc1cnc[nH]1)C(=O)N[C@H](C(=O)N[C@@H](Cc1ccccc1)C(=O)NCC(N)=O)[C@@H](C)O)[C@@H](C)O)[C@@H](C)O
10 | < 6.00 | CC(C)[C@H](NC(=O)[C@H](Cc1c[nH]c2ccccc12)NC(=O)[C@H](CC(=O)O)NC(=O)[C@H](C)NC(=O)[C@H](CS)NC(=O)[C@H](CO)NC(=O)CCN)C(=O)N[C@@H](CS)C(=O)N[C@@H](Cc1ccc(O)cc1)C(=O)N[C@@H](Cc1c[nH]c2ccccc12)C(=O)N[C@@H](Cc1cnc[nH]1)C(=O)N[C@H](C(=O)N[C@@H](Cc1ccccc1)C(=O)NCC(=O)O)[C@@H](C)O
11 | < 6.00 | CC(C)[C@H](NC(=O)[C@H](Cc1c[nH]c2ccccc12)NC(=O)[C@H](CC(=O)O)NC(=O)[C@H](C)NC(=O)[C@@H](N)CS)C(=O)N[C@@H](CS)C(=O)N[C@@H](Cc1ccc(O)cc1)C(=O)N[C@@H](Cc1cccc2ccccc12)C(=O)N[C@@H](Cc1cnc[nH]1)C(=O)N[C@H](C(=O)N[C@@H](Cc1ccccc1)C(=O)N(C)CC(=O)O)[C@@H](C)O
12 | < 4.52 | CSCC[C@H](NC(=O)[C@@H](N)CS)C(=O)N[C@H](C(=O)N[C@@H](Cc1c[nH]c2ccccc12)C(=O)N[C@@H](CCC(N)=O)C(=O)N[C@@H](CS)C(=O)N[C@@H](Cc1ccc(O)cc1)C(=O)N[C@@H](Cc1c[nH]c2ccccc12)C(=O)N[C@@H](CC(C)C)C(=O)N[C@@H](Cc1ccc(O)cc1)C(=O)NCC(=O)N[C@@H](CCCNC(=N)N)C(=O)NCCOCC(=O)N[C@H](CCCCN)C(N)=O)[C@@H](C)O
13 | < 6.00 | CC(=O)N[C@@H](CS)C(=O)N[C@@H](C)C(=O)N[C@@H](CC(=O)O)C(=O)N[C@@H](Cc1c[nH]c2ccccc12)C(=O)N[C@@H](CCC(=O)O)C(=O)N[C@@H](CS)C(=O)N[C@@H](Cc1ccc(O)cc1)C(=O)N[C@@H](Cc1c[nH]c2ccccc12)C(=O)N[C@@H](Cc1cnc[nH]1)C(=O)N[C@H](C(=O)N[C@@H](Cc1ccccc1)C(=O)NCC(N)=O)[C@@H](C)O
14 | 5.00 to 6.00 | CC(=O)NC1CCC/C=C\CCC(C(=O)N[C@@H](Cc2ccc(O)cc2)C(=O)N[C@@H](Cc2c[nH]c3ccccc23)C(=O)N[C@@H](CCCNC(=N)N)C(=O)N[C@@H](CCCCN)C(=O)N[C@@H](Cc2ccccc2)C(=O)NCC(=O)NCCOCC(=O)N[C@H](CCCCN)C(N)=O)NC(=O)[C@H](CCC(N)=O)NC(=O)[C@H](Cc2c[nH]c3ccccc23)NC(=O)[C@H]([C@@H](C)O)NC(=O)[C@H](CCCNC(=N)N)NC1=O (stereo not given in full)
15 | < 6.00 | CC(C)[C@H](NC(=O)[C@H](Cc1c[nH]c2ccccc12)NC(=O)[C@H](CC(=O)O)NC(=O)[C@H](C)NC(=O)[C@@H](N)CS)C(=O)N[C@@H](CS)C(=O)N[C@@H](Cc1ccc(O)cc1)C(=O)N[C@H](CC(=O)N[C@@H](Cc1cnc[nH]1)C(=O)N[C@H](C(=O)N[C@@H](Cc1ccccc1)C(=O)NCC(N)=O)[C@@H](C)O)Cc1c[nH]c2ccccc12
16 | 6.00 to 6.30 | CC(=O)N[C@@H](CS)C(=O)N[C@@H](CCCNC(=N)N)C(=O)N[C@@H](CC(=O)O)C(=O)N[C@@H](Cc1c[nH]c2ccccc12)C(=O)N[C@H](C(=O)N[C@@H](CS)C(=O)N[C@@H](Cc1ccc(O)cc1)C(=O)N[C@@H](Cc1c[nH]c2ccccc12)C(=O)N[C@@H](Cc1cnc[nH]1)C(=O)N[C@H](C(=O)N[C@@H](Cc1ccccc1)C(=O)NCC(N)=O)[C@@H](C)O)C(C)C
17 | > 6.30 | CC(=O)N[C@@H](CS)C(=O)N[C@H](C(=O)N[C@H](C(=O)N[C@@H](Cc1c[nH]c2ccccc12)C(=O)N[C@@H](CCC(=O)O)C(=O)N[C@@H](CS)C(=O)N[C@@H](Cc1ccc(O)cc1)C(=O)N[C@@H](Cc1c[nH]c2ccccc12)C(=O)N[C@@H](Cc1cnc[nH]1)C(=O)N[C@@H](CCC(N)=O)C(=O)N[C@@H](Cc1ccccc1)C(=O)NCC(N)=O)[C@@H](C)O)[C@@H](C)O (Ac-CTTWECYWHQFG-NH2)
18 | > 6.30 | CC(=O)N[C@@H](CS)C(=O)N[C@@H](CCC(N)=O)C(=O)N[C@H](C(=O)N[C@@H](Cc1c[nH]c2ccccc12)C(=O)N[C@@H](CCC(=O)O)C(=O)N[C@@H](CS)C(=O)N[C@@H](Cc1ccc(O)cc1)C(=O)N[C@@H](Cc1c[nH]c2ccccc12)C(=O)N[C@@H](Cc1cnc[nH]1)C(=O)N[C@@H](CC(C)C)C(=O)N[C@@H](Cc1ccc(O)cc1)C(=O)NCC(N)=O)[C@@H](C)O (Ac-CQTWECYWHLYG-NH2)
19 | > 6.30 | CC(=O)N[C@@H](CS)C(=O)N[C@H](C(=O)N[C@@H](CC(=O)O)C(=O)N[C@@H](Cc1c[nH]c2ccccc12)C(=O)N[C@H](C(=O)N[C@@H](CS)C(=O)N[C@@H](Cc1ccc(O)cc1)C(=O)N[C@@H](Cc1c[nH]c2ccccc12)C(=O)N[C@@H](Cc1cnc[nH]1)C(=O)N[C@H](C(=O)N[C@@H](Cc1ccccc1)C(=O)NCC(N)=O)[C@@H](C)O)C(C)C)[C@@H](C)O
20 | 6.00 to 7.00 | CCCCCCCC(=O)N[C@H](C(=O)N[C@@H](CCC(N)=O)C(=O)N[C@H](C(=O)N[C@@H](Cc1c[nH]c2ccccc12)C(=O)N[C@@H](CCC(N)=O)C(=O)N[C@H](C(=O)N[C@@H](Cc1ccc(OC)cc1)C(=O)N[C@@H](Cc1ccc2ccccc2c1)C(=O)N[C@@](C)(CCCCN)C(=O)N[C@@H](CCCCNC(C)=O)C(=O)N[C@@H](CC(N)=O)C(=O)NCC(N)=O)C(C)(C)S)[C@@H](C)O)C(C)(C)S
